Measured values reported in the supplement of paper PMC4862054.

System: BT-474
Experiment: drug sensitivity score (DSS), CellTiter-Blue viability (DSS (AUC-based score)); higher = stronger viability inhibition; extreme values may be limits of the assay
Settings: incubation time: 72 h
Method: (§1)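 DSRT with the CellTiter-Blue (resazurin reduction) viability readout, fluorescence 560/590 nm, 72 h incubation. Plates were normalised to DMSO and benzethonium chloride controls. DSS is computed from the area under the fitted dose-response curve (5 or 9 concentrations).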

Row | SMILES | drug sensitivity score
1 | COc1ncc(-c2ccc3nccc(-c4ccnnc4)c3c2)cc1NS(=O)(=O)c1ccc(F)cc1F | 19.9
2 | Cn1c(=O)c(F)c(Nc2ccc(I)cc2F)c2c(=O)n(C[C@@H](O)CO)cnc21 [TAK-733] | 0
3 | CCS(=O)(=O)c1cccc(-c2cc(C(=O)NC3CCN(C)CC3)c(C)c3[nH]c4ncc(C)cc4c23)c1 [TAK-901] | 0
4 | COc1cc(Nc2ncc(F)c(Nc3ccc4c(n3)NC(=O)C(C)(C)O4)n2)cc(OC)c1OC [R406] | 0
5 | COC1=CC(c2cc3ccccc3[nH]2)=N/C1=C\c1[nH]c(C)cc1C [Obatoclax] | 15.2
6 | CS(=O)(=O)OCCCCOS(C)(=O)=O [Busulfan] | 0
7 | COc1cccc2c1C(=O)c1c(O)c3c(c(O)c1C2=O)C[C@@](O)(C(C)=O)C[C@@H]3O[C@H]1C[C@H](N)[C@H](O)[C@H](C)O1 [Daunorubicin] | 7.7
8 | O=c1[nH]cc(F)c(=O)[nH]1 [Fluorouracil] | 0
9 | CN1CCN(c2ccc3nc(-c4c(N)c5c(F)cccc5[nH]c4=O)[nH]c3c2)CC1 [Dovitinib] | 0
10 | O=c1[nH]c(=O)n([C@H]2C[C@H](O)[C@@H](CO)O2)cc1F [Floxuridine] | 0
11 | CC(C)C[C@H](NC(=O)[C@H](Cc1ccccc1)NC(=O)c1cnccn1)B(O)O [Bortezomib] | 18.8
12 | O=C(c1ccc(OCCN2CCCCC2)cc1)c1c(-c2ccc(O)cc2)sc2cc(O)ccc12 [Raloxifene] | 0

System: MDA-MB-436
Experiment: as above
Settings: incubation time: 72 h
Method: as §1

Row | SMILES | drug sensitivity score
13 | COc1ncc(-c2ccc3nccc(-c4ccnnc4)c3c2)cc1NS(=O)(=O)c1ccc(F)cc1F | 14.2
14 | Cn1c(=O)c(F)c(Nc2ccc(I)cc2F)c2c(=O)n(C[C@@H](O)CO)cnc21 [TAK-733] | 0
15 | CCS(=O)(=O)c1cccc(-c2cc(C(=O)NC3CCN(C)CC3)c(C)c3[nH]c4ncc(C)cc4c23)c1 [TAK-901] | 1.92
16 | COc1cc(Nc2ncc(F)c(Nc3ccc4c(n3)NC(=O)C(C)(C)O4)n2)cc(OC)c1OC [R406] | 0
17 | COC1=CC(c2cc3ccccc3[nH]2)=N/C1=C\c1[nH]c(C)cc1C [Obatoclax] | 13.7
18 | CS(=O)(=O)OCCCCOS(C)(=O)=O [Busulfan] | 0
19 | COc1cccc2c1C(=O)c1c(O)c3c(c(O)c1C2=O)C[C@@](O)(C(C)=O)C[C@@H]3O[C@H]1C[C@H](N)[C@H](O)[C@H](C)O1 [Daunorubicin] | 10.8
20 | O=c1[nH]cc(F)c(=O)[nH]1 [Fluorouracil] | 1.93
21 | CN1CCN(c2ccc3nc(-c4c(N)c5c(F)cccc5[nH]c4=O)[nH]c3c2)CC1 [Dovitinib] | 0
22 | O=c1[nH]c(=O)n([C@H]2C[C@H](O)[C@@H](CO)O2)cc1F [Floxuridine] | 10.6
23 | CC(C)C[C@H](NC(=O)[C@H](Cc1ccccc1)NC(=O)c1cnccn1)B(O)O [Bortezomib] | 16.2
24 | O=C(c1ccc(OCCN2CCCCC2)cc1)c1c(-c2ccc(O)cc2)sc2cc(O)ccc12 [Raloxifene] | 0

System: Hs578T
Experiment: as above
Settings: incubation time: 72 h
Method: as §1

Row | SMILES | drug sensitivity score
25 | COc1ncc(-c2ccc3nccc(-c4ccnnc4)c3c2)cc1NS(=O)(=O)c1ccc(F)cc1F | 15.1
26 | Cn1c(=O)c(F)c(Nc2ccc(I)cc2F)c2c(=O)n(C[C@@H](O)CO)cnc21 [TAK-733] | 1.73
27 | CCS(=O)(=O)c1cccc(-c2cc(C(=O)NC3CCN(C)CC3)c(C)c3[nH]c4ncc(C)cc4c23)c1 [TAK-901] | 6.31
28 | COc1cc(Nc2ncc(F)c(Nc3ccc4c(n3)NC(=O)C(C)(C)O4)n2)cc(OC)c1OC [R406] | 0
29 | COC1=CC(c2cc3ccccc3[nH]2)=N/C1=C\c1[nH]c(C)cc1C [Obatoclax] | 16.6
30 | CS(=O)(=O)OCCCCOS(C)(=O)=O [Busulfan] | 0
31 | COc1cccc2c1C(=O)c1c(O)c3c(c(O)c1C2=O)C[C@@](O)(C(C)=O)C[C@@H]3O[C@H]1C[C@H](N)[C@H](O)[C@H](C)O1 [Daunorubicin] | 9.16
32 | O=c1[nH]cc(F)c(=O)[nH]1 [Fluorouracil] | 0
33 | CN1CCN(c2ccc3nc(-c4c(N)c5c(F)cccc5[nH]c4=O)[nH]c3c2)CC1 [Dovitinib] | 0
34 | O=c1[nH]c(=O)n([C@H]2C[C@H](O)[C@@H](CO)O2)cc1F [Floxuridine] | 9.02
35 | CC(C)C[C@H](NC(=O)[C@H](Cc1ccccc1)NC(=O)c1cnccn1)B(O)O [Bortezomib] | 19.7
36 | O=C(c1ccc(OCCN2CCCCC2)cc1)c1c(-c2ccc(O)cc2)sc2cc(O)ccc12 [Raloxifene] | 0

System: CAL-51
Experiment: as above
Settings: incubation time: 72 h
Method: as §1

Row | SMILES | drug sensitivity score
37 | COc1ncc(-c2ccc3nccc(-c4ccnnc4)c3c2)cc1NS(=O)(=O)c1ccc(F)cc1F | 21.4
38 | Cn1c(=O)c(F)c(Nc2ccc(I)cc2F)c2c(=O)n(C[C@@H](O)CO)cnc21 [TAK-733] | 3.52
39 | CCS(=O)(=O)c1cccc(-c2cc(C(=O)NC3CCN(C)CC3)c(C)c3[nH]c4ncc(C)cc4c23)c1 [TAK-901] | 8.9
40 | COc1cc(Nc2ncc(F)c(Nc3ccc4c(n3)NC(=O)C(C)(C)O4)n2)cc(OC)c1OC [R406] | 0
41 | COC1=CC(c2cc3ccccc3[nH]2)=N/C1=C\c1[nH]c(C)cc1C [Obatoclax] | 7.63
42 | CS(=O)(=O)OCCCCOS(C)(=O)=O [Busulfan] | 0
43 | COc1cccc2c1C(=O)c1c(O)c3c(c(O)c1C2=O)C[C@@](O)(C(C)=O)C[C@@H]3O[C@H]1C[C@H](N)[C@H](O)[C@H](C)O1 [Daunorubicin] | 13.7
44 | O=c1[nH]cc(F)c(=O)[nH]1 [Fluorouracil] | 1.79
45 | CN1CCN(c2ccc3nc(-c4c(N)c5c(F)cccc5[nH]c4=O)[nH]c3c2)CC1 [Dovitinib] | 0
46 | O=c1[nH]c(=O)n([C@H]2C[C@H](O)[C@@H](CO)O2)cc1F [Floxuridine] | 21.3
47 | CC(C)C[C@H](NC(=O)[C@H](Cc1ccccc1)NC(=O)c1cnccn1)B(O)O [Bortezomib] | 16.8
48 | O=C(c1ccc(OCCN2CCCCC2)cc1)c1c(-c2ccc(O)cc2)sc2cc(O)ccc12 [Raloxifene] | 0

System: BT-549
Experiment: as above
Settings: incubation time: 72 h
Method: as §1

Row | SMILES | drug sensitivity score
49 | COc1ncc(-c2ccc3nccc(-c4ccnnc4)c3c2)cc1NS(=O)(=O)c1ccc(F)cc1F | 13.6
50 | Cn1c(=O)c(F)c(Nc2ccc(I)cc2F)c2c(=O)n(C[C@@H](O)CO)cnc21 [TAK-733] | 0
51 | CCS(=O)(=O)c1cccc(-c2cc(C(=O)NC3CCN(C)CC3)c(C)c3[nH]c4ncc(C)cc4c23)c1 [TAK-901] | 8.46
52 | COc1cc(Nc2ncc(F)c(Nc3ccc4c(n3)NC(=O)C(C)(C)O4)n2)cc(OC)c1OC [R406] | 5.38
53 | COC1=CC(c2cc3ccccc3[nH]2)=N/C1=C\c1[nH]c(C)cc1C [Obatoclax] | 16.4
54 | CS(=O)(=O)OCCCCOS(C)(=O)=O [Busulfan] | 0
55 | COc1cccc2c1C(=O)c1c(O)c3c(c(O)c1C2=O)C[C@@](O)(C(C)=O)C[C@@H]3O[C@H]1C[C@H](N)[C@H](O)[C@H](C)O1 [Daunorubicin] | 9.47
56 | O=c1[nH]cc(F)c(=O)[nH]1 [Fluorouracil] | 2.25
57 | CN1CCN(c2ccc3nc(-c4c(N)c5c(F)cccc5[nH]c4=O)[nH]c3c2)CC1 [Dovitinib] | 0
58 | O=c1[nH]c(=O)n([C@H]2C[C@H](O)[C@@H](CO)O2)cc1F [Floxuridine] | 6.97
59 | CC(C)C[C@H](NC(=O)[C@H](Cc1ccccc1)NC(=O)c1cnccn1)B(O)O [Bortezomib] | 24.3
60 | O=C(c1ccc(OCCN2CCCCC2)cc1)c1c(-c2ccc(O)cc2)sc2cc(O)ccc12 [Raloxifene] | 0

System: HCC1937
Experiment: as above
Settings: incubation time: 72 h
Method: as §1

Row | SMILES | drug sensitivity score
61 | COc1ncc(-c2ccc3nccc(-c4ccnnc4)c3c2)cc1NS(=O)(=O)c1ccc(F)cc1F | 12.3
62 | Cn1c(=O)c(F)c(Nc2ccc(I)cc2F)c2c(=O)n(C[C@@H](O)CO)cnc21 [TAK-733] | 0
63 | CCS(=O)(=O)c1cccc(-c2cc(C(=O)NC3CCN(C)CC3)c(C)c3[nH]c4ncc(C)cc4c23)c1 [TAK-901] | 6.44
64 | COc1cc(Nc2ncc(F)c(Nc3ccc4c(n3)NC(=O)C(C)(C)O4)n2)cc(OC)c1OC [R406] | 0
65 | COC1=CC(c2cc3ccccc3[nH]2)=N/C1=C\c1[nH]c(C)cc1C [Obatoclax] | 25.1
66 | CS(=O)(=O)OCCCCOS(C)(=O)=O [Busulfan] | 2.62
67 | COc1cccc2c1C(=O)c1c(O)c3c(c(O)c1C2=O)C[C@@](O)(C(C)=O)C[C@@H]3O[C@H]1C[C@H](N)[C@H](O)[C@H](C)O1 [Daunorubicin] | 14.9
68 | O=c1[nH]cc(F)c(=O)[nH]1 [Fluorouracil] | 0
69 | CN1CCN(c2ccc3nc(-c4c(N)c5c(F)cccc5[nH]c4=O)[nH]c3c2)CC1 [Dovitinib] | 3.16
70 | O=c1[nH]c(=O)n([C@H]2C[C@H](O)[C@@H](CO)O2)cc1F [Floxuridine] | 3.61
71 | CC(C)C[C@H](NC(=O)[C@H](Cc1ccccc1)NC(=O)c1cnccn1)B(O)O [Bortezomib] | 27.3
72 | O=C(c1ccc(OCCN2CCCCC2)cc1)c1c(-c2ccc(O)cc2)sc2cc(O)ccc12 [Raloxifene] | 0

System: MDA-MB-468
Experiment: as above
Settings: incubation time: 72 h
Method: as §1

Row | SMILES | drug sensitivity score
73 | COc1ncc(-c2ccc3nccc(-c4ccnnc4)c3c2)cc1NS(=O)(=O)c1ccc(F)cc1F | 14.2
74 | Cn1c(=O)c(F)c(Nc2ccc(I)cc2F)c2c(=O)n(C[C@@H](O)CO)cnc21 [TAK-733] | 0
75 | CCS(=O)(=O)c1cccc(-c2cc(C(=O)NC3CCN(C)CC3)c(C)c3[nH]c4ncc(C)cc4c23)c1 [TAK-901] | 0.762
76 | COc1cc(Nc2ncc(F)c(Nc3ccc4c(n3)NC(=O)C(C)(C)O4)n2)cc(OC)c1OC [R406] | 0
77 | COC1=CC(c2cc3ccccc3[nH]2)=N/C1=C\c1[nH]c(C)cc1C [Obatoclax] | 16.6
78 | CS(=O)(=O)OCCCCOS(C)(=O)=O [Busulfan] | 0
79 | COc1cccc2c1C(=O)c1c(O)c3c(c(O)c1C2=O)C[C@@](O)(C(C)=O)C[C@@H]3O[C@H]1C[C@H](N)[C@H](O)[C@H](C)O1 [Daunorubicin] | 11.1
80 | O=c1[nH]cc(F)c(=O)[nH]1 [Fluorouracil] | 0.272
81 | CN1CCN(c2ccc3nc(-c4c(N)c5c(F)cccc5[nH]c4=O)[nH]c3c2)CC1 [Dovitinib] | 0
82 | O=c1[nH]c(=O)n([C@H]2C[C@H](O)[C@@H](CO)O2)cc1F [Floxuridine] | 17.8
83 | CC(C)C[C@H](NC(=O)[C@H](Cc1ccccc1)NC(=O)c1cnccn1)B(O)O [Bortezomib] | 29.8
84 | O=C(c1ccc(OCCN2CCCCC2)cc1)c1c(-c2ccc(O)cc2)sc2cc(O)ccc12 [Raloxifene] | 0
